Test system: Human articular chondrocytes
Experiment: Synthesis of extracellular aggrecans by chondrocytes cultured in agarose gel (35S incorporation)
Type: cell-based
Details: 2.5 μg/ml, 48 hours with Na2 35SO4 after culturing for two weeks; for Amount of 35S-aggrecans associated with the cells: cell-associated fraction; for Amount of 35S-aggrecans in the medium: incubation medium fraction; for Amount of 35S-aggrecans in the interterritorial matrix: interterritorial matrix fraction
Experimental: Evaluation of the in vitro effects of polysulphated cyclodextrins on the synthesis of extracellular aggrecans by chondrocytes.
Human articular chondrocytes are isolated according to the methods described by W. T. Green Jr (Clin. Orthop., 1971, 75, 248-260) and K. E. Kuettner et al. (J. Cell. Biol., 1982, 93, 743-750).
The chondrocytes are then cultured in agarose gel, in accordance with the method described by P. D. Benya et al. (Cell., 1982, 30, 215-224) and modified according to M. Cornelissen et al. (J. Tiss. Cult. Meth., 1993, 15, 139-146) and according to G. Verbruggen et al. (Clin. Exp. Rheumatol, 1990, 8, 371-378).
Synthesis of aggrecans: This is measured by determining the incorporation of 35S, supplied by a radioactive precursor, sodium sulphate Na2^35SO4. After culturing for two weeks, 10 μCi/ml of the radio-labelled precursor are introduced into the culture medium for 48 hours, as well as the compounds under test (polysulphated α-, β- and γ-cyclodextrins) or the reference compounds (chondroitin sulphate and polysulphate) at an end concentration of 2.5 μg/ml.
The newly synthesised ^35S-aggrecans accumulate partly in the intercellular agarose medium or are released into the incubation medium.
At the end of the incubation period, the agarose gel is broken up mechanically and is then digested with 3 ml of a 50 U/ml solution of […] in a 0.067M phosphate buffer at pH 6.0, in the presence of proteinase inhibitors.
The suspension thereby obtained is centrifuged; the supernatant, which comprises the ^35S-aggrecans of the interterritorial matrix, and the incubation medium, comprising the metabolites of ^35S-aggrecans released into the extracellular matrix, are combined for subsequent chromatography.
The centrifuged pellet, comprising the chondrocytes and the ^35S-aggrecans associated therewith, is treated for 48 hours with 1 ml of a 4.0M solution of guanidinium chloride in a 0.05M acetate buffer at pH 5.8 comprising the proteinase inhibitors. The objective of this operation is to extract the ^35S-aggrecans associated with the cells. The solution obtained is centrifuged to separate the cells from the supernatant, which is separated off for subsequent chromatography. The chromatography operations on the various fractions obtained are carried out on Sephadex G25 gel in a pH 6.8 phosphate buffer containing 0.01M Na2SO4, so as to separate the ^35S-aggrecans from the free Na2^35SO4.
The radioactivity of each of the macromolecular eluates obtained is measured and related to the number of chondrocytes contained in the initial culture and is expressed in terms of pg of SO4 incorporated into the aggrecans, per million chondrocytes and per hour.

| Substance | Amount of 35S-aggrecans associated with the cells | Amount of 35S-aggrecans in the medium | Amount of 35S-aggrecans in the interterritorial matrix |
| --- | --- | --- | --- |
| polysulphate β-cyclodextrin [β CD] | 2262 pg of SO4 incorporated into the aggrecans, per million chondrocytes and per hour | 1658 pg of SO4 incorporated into the aggrecans, per million chondrocytes and per hour | 6232 pg of SO4 incorporated into the aggrecans, per million chondrocytes and per hour |
| polysulphated γ-cyclodextrin [γ CD] | 2907 pg of SO4 incorporated into the aggrecans, per million chondrocytes and per hour | 3873 pg of SO4 incorporated into the aggrecans, per million chondrocytes and per hour | 8232 pg of SO4 incorporated into the aggrecans, per million chondrocytes and per hour |
| chondroitin sulphate [CS, reference compound] | 1373 pg of SO4 incorporated into the aggrecans, per million chondrocytes and per hour | 2187 pg of SO4 incorporated into the aggrecans, per million chondrocytes and per hour | 6589 pg of SO4 incorporated into the aggrecans, per million chondrocytes and per hour |
| polysulphated α-cyclodextrin [α CD] | 1315 pg of SO4 incorporated into the aggrecans, per million chondrocytes and per hour | 1589 pg of SO4 incorporated into the aggrecans, per million chondrocytes and per hour | 8036 pg of SO4 incorporated into the aggrecans, per million chondrocytes and per hour |
| chondroitin polysulphate [CPS, reference compound] | 1392 pg of SO4 incorporated into the aggrecans, per million chondrocytes and per hour | 2519 pg of SO4 incorporated into the aggrecans, per million chondrocytes and per hour | 6446 pg of SO4 incorporated into the aggrecans, per million chondrocytes and per hour |

From patent US6930098B2, “Use of polysulphated cyclodextrins for treating osteoarthritis” (Universiteit Gent, priority 2000, dated 2005)
